In patent publication US20260234129A1, “NOVEL IMIDAZOLE DERIVATIVE AND USE THEREOF” (PELEMED CO., LTD., priority 2023, published 2026):

system: MV4-11 cells (FLT3-ITD-expressing AML cell line); assay: Cell proliferation inhibition, Alamar Blue; assay type: cell-based, human; details: 72 hours of compound treatment, read-out: Cellular (GI50) MV4-11
Procedure: The cell proliferation inhibition experiment on acute myeloid leukemia (AML) cell lines was performed using FL3-ITD-expressing AML cell line MV4-11, BaF3-ITD-FLT3 F691L cell line, and BaF3-ITD-FLT3 D835Y cell line to test FLT3 inhibitory activity. All cell lines were human-derived cell lines, and the sources and culture conditions for each cell line are as follows.
Cell viability was assessed by a resazurin redox-based assay using the Alamar Blue Assay kit (Invitrogen, USA). Specifically, MV4-11, BaF3-ITD-FLT3-F691L, and BaF3-ITD-FLT3-D835Y cells were plated in 384-well plates at 8,000 cells in 45 μL of medium. As a negative control, dimethyl sulfoxide (DMSO) was added together with the compound. After three days (72 hours) of compound treatment, 5 μL of the Alamar Blue kit reagent was added to each well of the 384-well plates, followed by incubation at 37° C. for 2 hours in a humidified CO2 incubator. After incubation, fluorescence intensity (Flu) was measured at 544 nm and 590 nm using a SpectraMax iD3 Multi Mode Microplate Reader (Molecular Devices, ID3-STD).

Row | SMILES | GI50 [nM]
1 | O=C(N[C@@H]1[C@@H]2CNC[C@@H]21)c1ccc2[nH]nc(-c3nc4ccc(N5CCOCC5)cc4[nH]3)c2c1 [Example 71, N-((1R,5S,6r)-3-azabicyclo[3.1.0]hexan-6-yl)-3-(6-morpholino-1H-benzo[d]imidazol-2-yl)-1H-indazole-5-carboxamide] | 10 to 100

same assay, conditions: Homo sapiens, MV4-11, 72 hours of compound treatment, read-out: Cellular (GI50) MV4-11

Row | SMILES | GI50 [nM]
2 | NCCCCNC(=O)c1ccc2[nH]nc(-c3nc4ccc(F)cc4[nH]3)c2c1 [Example 39, N-(4-aminobutyl)-3-(6-fluoro-1H-benzo[d]imidazol-2-yl)-1H-indazole-5-carboxamide] | 100 to 1000
3 | C[C@@H]1CN(c2ccc3nc(-c4n[nH]c5ccc(C(=O)NCCCN)cc45)[nH]c3c2)C[C@H](C)N1 [Example 19, N-(3-aminopropyl)-3-(6-((3S,5R)-3,5-dimethylpiperazin-1-yl)-1H-benzo[d]imidazol-2-yl)-1H-indazole-5-carboxamide] | 100 to 1000
4 | CC(C)n1c(-c2n[nH]c3ccc(C(=O)NCCCN)cc23)nc2ccc(F)cc21 [Example 105, N-(3-aminopropyl)-3-(6-fluoro-1-isopropyl-1H-benzo[d]imidazol-2-yl)-1H-indazole-5-carboxamide] | > 1000
5 | CN1CCN(C(=O)c2ccc3[nH]nc(-c4nc5ccccc5[nH]4)c3c2)CC1 [Example 2, (3-(1H-benzo[d]imidazol-2-yl)-1H-indazol-5-yl)(4-methylpiperazin-1-yl)methanone] | 100 to 1000
6 | Nc1ccc(NC(=O)c2ccc3[nH]nc(-c4nc5ccc(N6CCOCC6)cc5[nH]4)c3c2)cc1 [Example 72, N-(4-aminophenyl)-3-(6-morpholino-1H-benzo[d]imidazol-2-yl)-1H-indazole-5-carboxamide] | 10 to 100
7 | CC(=O)N1CC(CNC(=O)c2ccc3[nH]nc(-c4nc5ccc(N6CCOCC6)cc5[nH]4)c3c2)C1 [Example 61, N-((1-acetylazetidin-3-yl)methyl)-3-(6-morpholino-1H-benzo[d]imidazol-2-yl)-1H-indazole-5-carboxamide] | > 1000
8 | NCCCNC(=O)c1ccc2[nH]nc(-c3ncc(-c4cccc([N+](=O)[O-])c4)[nH]3)c2c1 [Example 89, N-(3-aminopropyl)-3-(5-(3-nitrophenyl)-1H-imidazol-2-yl)-1H-indazole-5-carboxamide] | 100 to 1000
9 | CN1CCN(C2CCN(C(=O)c3ccc4[nH]nc(-c5nc6ccc(F)cc6[nH]5)c4c3)CC2)CC1 [Example 34, (3-(6-fluoro-1H-benzo[d]imidazol-2-yl)-1H-indazol-5-yl)(4-(4-methylpiperazin-1-yl)piperidin-1-yl)methanone] | > 1000
10 | O=C(c1ccc2[nH]nc(-c3nc4ccccc4[nH]3)c2c1)N1CCN(c2ccc(F)cc2)CC1 [Example 3, (3-(1H-benzo[d]imidazol-2-yl)-1H-indazol-5-yl)(4-(4-fluorophenyl)piperazin-1-yl)methanone] | > 1000
11 | NCCCNC(=O)c1ccc2[nH]nc(-c3ncc(-c4ccc(N5CCOCC5)cc4)[nH]3)c2c1 [Example 90, N-(3-aminopropyl)-3-(5-(4-morpholinophenyl)-1H-imidazol-2-yl)-1H-indazole-5-carboxamide] | 100 to 1000
12 | CN1CCN(C(=O)c2ccc3[nH]nc(-c4nc(-c5ccccc5)c[nH]4)c3c2)CC1 [Example 99, (4-methylpiperazin-1-yl)(3-(4-phenyl-1H-imidazol-2-yl)-1H-indazol-5-yl)methanone] | > 1000
13 | O=C(c1ccc2[nH]nc(-c3nc(-c4ccccc4)c[nH]3)c2c1)N1CCN(c2ccc(F)cc2)CC1 [Example 97, (4-(4-fluorophenyl)piperazin-1-yl)(3-(4-phenyl-1H-imidazol-2-yl)-1H-indazol-5-yl)methanone] | > 1000
14 | NCCCNC(=O)c1ccc2[nH]nc(-c3ncc(-c4ccc(F)cc4)[nH]3)c2c1 [Example 81, N-(3-aminopropyl)-3-(5-(4-fluorophenyl)-1H-imidazol-2-yl)-1H-indazole-5-carboxamide] | 10 to 100
15 | NCCNC(=O)c1ccc2[nH]nc(-c3nc4ccc(F)cc4[nH]3)c2c1 [Example 37, N-(2-aminoethyl)-3-(6-fluoro-1H-benzo[d]imidazol-2-yl)-1H-indazole-5-carboxamide] | 10 to 100
16 | NCCCNC(=O)c1ccc2[nH]nc(-c3nc4cccc(F)c4[nH]3)c2c1 [Example 25, N-(3-aminopropyl)-3-(7-fluoro-1H-benzo[d]imidazol-2-yl)-1H-indazole-5-carboxamide] | 10 to 100
17 | CN(C)CCn1c(-c2n[nH]c3ccc(C(=O)NCCCN)cc23)nc2ccc(F)cc21 [Example 107, N-(3-aminopropyl)-3-(1-(2-(dimethylamino)ethyl)-6-fluoro-1H-benzo[d]imidazol-2-yl)-1H-indazole-5-carboxamide] | > 1000
18 | NCCCNC(=O)c1ccc2[nH]nc(-c3ncc(-c4cccc(F)c4)[nH]3)c2c1 [Example 82, N-(3-aminopropyl)-3-(5-(3-fluorophenyl)-1H-imidazol-2-yl)-1H-indazole-5-carboxamide] | 10 to 100

Row | SMILES | GI50 [nM]
19 | NCCCNC(=O)c1ccc2[nH]nc(-c3nc(C(N)=O)c(-c4ccccc4)[nH]3)c2c1 [Example 113, N-(3-aminopropyl)-3-(4-carbamoyl-5-phenyl-1H-imidazol-2-yl)-1H-indazole-5-carboxamide] | 100 to 1000
20 | NCCCNC(=O)c1ccc2[nH]nc(-c3ncc(-c4ccc(C(F)(F)F)cc4)[nH]3)c2c1 [Example 86, N-(3-aminopropyl)-3-(5-(4-(trifluoromethyl)phenyl)-1H-imidazol-2-yl)-1H-indazole-5-carboxamide] | 10 to 100
21 | O=C(c1ccc2[nH]nc(-c3nc4ccc(N5CCOCC5)cc4[nH]3)c2c1)N1C[C@H]2C[C@@H]1CN2 [Example 65, ((1R,4R)-2,5-diazabicyclo[2.2.1]heptan-2-yl)(3-(6-morpholino-1H-benzo[d]imidazol-2-yl)-1H-indazol-5-yl)methanone] | 10 to 100
22 | NCCCNC(=O)c1ccc2[nH]nc(-c3ncc(-c4cccc(O)c4)[nH]3)c2c1 [Example 92, N-(3-aminopropyl)-3-(5-(3-hydroxyphenyl)-1H-imidazol-2-yl)-1H-indazole-5-carboxamide] | 100 to 1000
23 | O=C(N[C@@H]1CCCNC1)c1ccc2[nH]nc(-c3nc4ccc(F)cc4[nH]3)c2c1 [Example 41, (R)-3-(6-fluoro-1H-benzo[d]imidazol-2-yl)-N-(piperidin-3-yl)-1H-indazole-5-carboxamide] | > 1000
24 | CN1CCN(CCn2c(-c3n[nH]c4ccc(C(=O)NCCCN)cc34)nc3ccc(F)cc32)CC1 [Example 108, N-(3-aminopropyl)-3-(6-fluoro-1-(2-(4-methylpiperazin-1-yl)ethyl)-1H-benzo[d]imidazol-2-yl)-1H-indazole-5-carboxamide] | > 1000
25 | NCCCNC(=O)c1ccc2[nH]nc(-c3ncc(-c4cccc(N5CCOCC5)c4)[nH]3)c2c1 [Example 91, N-(3-aminopropyl)-3-(5-(3-morpholinophenyl)-1H-imidazol-2-yl)-1H-indazole-5-carboxamide] | 10 to 100
26 | CC(=O)NCCCNC(=O)c1ccc2[nH]nc(-c3nc4ccc(N5CCCCC5)cc4[nH]3)c2c1 [Example 33, N-(3-acetamidopropyl)-3-(6-(piperidin-1-yl)-1H-benzo[d]imidazol-2-yl)-1H-indazole-5-carboxamide] | < 10
27 | NCCCNC(=O)c1ccc2[nH]nc(-c3ncc(-c4ccccc4F)[nH]3)c2c1 [Example 83, N-(3-aminopropyl)-3-(5-(2-fluorophenyl)-1H-imidazol-2-yl)-1H-indazole-5-carboxamide] | 10 to 100
28 | CN(C)CCNC(=O)c1ccc2[nH]nc(-c3nc(-c4ccccc4)c[nH]3)c2c1 [Example 95, N-(2-(dimethylamino)ethyl)-3-(4-phenyl-1H-imidazol-2-yl)-1H-indazole-5-carboxamide] | 100 to 1000
29 | NCCCNC(=O)c1ccc2[nH]nc(-c3ncc(COc4ccccc4)[nH]3)c2c1 [Example 115, N-(3-aminopropyl)-3-(5-(phenoxymethyl)-1H-imidazol-2-yl)-1H-indazole-5-carboxamide] | > 1000
30 | COc1cccc(-c2cnc(-c3n[nH]c4ccc(C(=O)NCCCN)cc34)[nH]2)c1 [Example 88, N-(3-aminopropyl)-3-(5-(3-methoxyphenyl)-1H-imidazol-2-yl)-1H-indazole-5-carboxamide] | 10 to 100
31 | NCCCNC(=O)c1ccc2[nH]nc(-c3ncc(-c4ccc(Cl)c(F)c4)[nH]3)c2c1 [Example 85, N-(3-aminopropyl)-3-(5-(4-chloro-3-fluorophenyl)-1H-imidazol-2-yl)-1H-indazole-5-carboxamide] | 10 to 100
32 | NCCCNC(=O)c1ccc2[nH]nc(-c3nc4ccc(F)cc4n3CCO)c2c1 [Example 109, N-(3-aminopropyl)-3-(6-fluoro-1-(2-hydroxyethyl)-1H-benzo[d]imidazol-2-yl)-1H-indazole-5-carboxamide] | > 1000
33 | COCCn1c(-c2n[nH]c3ccc(C(=O)NCCCN)cc23)nc2ccc(F)cc21 [Example 106, N-(3-aminopropyl)-3-(6-fluoro-1-(2-methoxyethyl)-1H-benzo[d]imidazol-2-yl)-1H-indazole-5-carboxamide] | > 1000
34 | O=C(NCCCO)c1ccc2[nH]nc(-c3nc4ccc(F)cc4[nH]3)c2c1 [Example 111, 3-(6-fluoro-1H-benzo[d]imidazol-2-yl)-N-(3-hydroxypropyl)-1H-indazole-5-carboxamide] | 100 to 1000
